Experimental data: PMC12040169 (PLOS Biology, 2025)

Assay: in vitro
Conditions: human, hela cells, % viability

COc1cccc(Cc2cccc(C3CCN(C(=O)Cc4ccccc4)CC3)n2)c1 [CBK286147]
viability at 28.5 h, 10 µM: 96.9%

O=C(Nc1ccc(-c2ccoc2)cc1C(=O)O)OCc1ccc([N+](=O)[O-])cc1 [CBK000141D]
viability at 28.5 h, 10 µM: 98.9%

Cc1nc(CC(=O)O)c(-c2ccccc2)s1 [CBK264988]
viability at 28.5 h, 10 µM: 110%

Cc1cc(C)n(C(C)Cn2cncc2-c2cn(C)nc2C)n1 (centres unmarked) [CBK281792]
viability at 28.5 h, 10 µM: 102%

Cc1cc(C(=O)NC(Cc2c[nH]c3ccccc23)C(=O)O)c(C)o1 (centres unmarked) [CBK286560]
viability at 28.5 h, 10 µM: 86.5%

Cc1cc(C)n(CCn2cc(-c3ncc[nH]3)nn2)c(=O)n1 [CBK307554]
viability at 28.5 h, 10 µM: 83.1%

NCCSC1CC(=O)N(Cc2cccs2)C1=O (centres unmarked) [CBK269047C]
viability at 28.5 h, 10 µM: 92.3%

O=C(Nc1ccc(C(F)(F)F)cc1)c1cc(Br)cnc1NCc1cccnc1 [CBK076419]
viability at 28.5 h, 10 µM: 111%

COc1cc(C(=O)ON=C(N)Cc2cccc3ccccc23)cc(OC)c1OC [CBK264611]
viability at 28.5 h, 10 µM: 95.9%

Fc1ccc(Oc2nccnc2N2CCN(Cc3cccnc3)CC2)cc1 [CBK083011]
viability at 28.5 h, 10 µM: 87.5%

O=C(Nc1nc2n(n1)C(c1ccc(F)cc1)CC(c1ccccc1)N2)c1cccnc1 (centres unmarked) [CBK267953]
viability at 28.5 h, 10 µM: 88.9%

CCOc1cc(C)c(-c2cc(N)[nH]n2)cc1OCC [CBK288216]
viability at 28.5 h, 10 µM: 85.9%

CCN(CC)CCNc1c(N)c(=O)oc2ccccc12 [CBK261469]
viability at 28.5 h, 10 µM: 91.7%

Cn1cnnc1CCC(=O)NCC1CCN(c2ccccc2F)C1 (centres unmarked) [CBK307587]
viability at 28.5 h, 10 µM: 76.5%

CCn1nc(C)c(-c2cncn2CC(C)n2nc(C)cc2C)c1C (centres unmarked) [CBK281777]
viability at 28.5 h, 10 µM: 109%

CCN1C(=O)C2(CC(=O)N(CCCN(C)C(=O)c3ccco3)C2=O)c2cc(C)ccc21 (centres unmarked) [CBK075141]
viability at 28.5 h, 10 µM: 94.3%

CCN(CC)CC1CCCN(C(=O)CCn2ccc3ccncc32)C1 (centres unmarked) [CBK285174]
viability at 28.5 h, 10 µM: 85.4%

Cc1cc(CNC(=O)/C=C/c2ccc(C(C)C)cc2)no1 [CBK149614]
viability at 28.5 h, 10 µM: 103%

O=C(O)CCN1C(=O)/C(=C/c2ccc(C(=O)O)cc2)SC1=S [CBK262785]
viability at 28.5 h, 10 µM: 93.2%

COc1ccccc1C(=O)CN1CCC2(CC1)OCCc1c2[nH]c2ccc(F)cc12 [CBK040238]
viability at 28.5 h, 10 µM: 97.6%

CC1C(c2ccccc2)CCC(C(=O)O)C1C(=O)O (centres unmarked) [CBK286566]
viability at 28.5 h, 10 µM: 90.5%

O=C(NC1CCCCC1)C1CCCN(C(=O)NCc2ccccn2)C1 (centres unmarked) [CBK305814]
viability at 28.5 h, 10 µM: 114%

O=C(c1cc(-c2cccnc2)[nH]n1)N1CCC(c2ccccc2)C1 (centres unmarked) [CBK281849]
viability at 28.5 h, 10 µM: 101%

CSc1ccc(-c2nc(C)c(C(C)=O)n2O)cc1 [CBK288356]
viability at 28.5 h, 10 µM: 92.5%

O=C(CN1CCC(c2ccccc2F)CC1)N1CCCC1 [CBK283578]
viability at 28.5 h, 10 µM: 98.2%

CC(SCC(=O)Nc1ccc(F)cc1)c1nc2ccccc2c(=O)[nH]1 (centres unmarked) [CBK269200]
viability at 28.5 h, 10 µM: 105%

CCS(=O)(=O)NC1CCN(c2nc(C(F)(F)F)nc3[nH]cnc23)CC1 [CBK304588]
viability at 28.5 h, 10 µM: 86.8%

COc1cc(OC)c(CN(C)CCN(C)C)cc1Br [CBK021255]
viability at 28.5 h, 10 µM: 88.6%

Cc1cc(C)n(CC(=O)NCC2CCCO2)c(=O)c1C#N (centres unmarked) [CBK269926]
viability at 28.5 h, 10 µM: 85.4%

O=C(N/N=C\c1cccs1)c1n[nH]c2c1CCCC2 [CBK261667]
viability at 28.5 h, 10 µM: 110%

CCCCN1CCC(CNc2nccc3sc(S(=O)(=O)NC4CCC4)cc23)CC1 [CBK038275C]
viability at 28.5 h, 10 µM: 95.9%

COC(=O)c1ccc(N2C(=O)NC(=O)/C(=C\c3ccc(OCC(=O)O)cc3)C2=O)cc1 [CBK265407]
viability at 28.5 h, 10 µM (bulk resorufin, single well): 85.2%

COc1ccccc1C1(NC(=O)Cn2nc(C)cc2C)CCCC1 [CBK283573]
viability at 28.5 h, 10 µM: 101%

O=[N+]([O-])c1ccccc1CS(=O)(=O)Nc1ccc(-c2nnn[nH]2)cc1 [CBK155430]
viability at 28.5 h, 10 µM: 94.5%

CN(C)CCCNc1nc(-c2cccc(Cl)c2)nc2ccccc12 [CBK267284C]
viability at 28.5 h, 10 µM: 81.5%

CSCCC(=O)N1CCC2(CCN(Cc3ccccc3)C2)C1 (centres unmarked) [CBK136838]
viability at 28.5 h, 10 µM: 93.8%

Cc1nc(-c2cccc(OC(F)F)c2)n(C2CCN(C)CC2)n1 [CBK307382]
viability at 28.5 h, 10 µM: 97.1%

CN(C)[C@H]1CC[C@@H](Cc2ccccc2)C[C@@H]1NC(=O)c1ccc(Cl)c(Cl)c1 [CBK012488]
viability at 28.5 h, 10 µM: 97.3%

COc1cc(CN2CCC3(CC2)CN(CC(N)=O)c2ccccc23)cc(OC)c1OC [CBK126774]
viability at 28.5 h, 10 µM: 93.1%

COCC1CN(C(=O)Nc2nnc(Cc3ccc(C)cc3)s2)CCO1 (centres unmarked) [CBK306278]
viability at 28.5 h, 10 µM: 83.3%

CN1CCN(NC(=O)CSc2ccccc2)CC1 [CBK268142]
viability at 28.5 h, 10 µM: 107%

COc1ccc(C2=NNC(c3ccc(C(=O)O)cc3)C2)cc1 (centres unmarked) [CBK287167]
viability at 28.5 h, 10 µM: 78%

O=[N+]([O-])c1ccccc1N/N=C/c1c[nH]c2ccccc12 [CBK261679]
viability at 28.5 h, 10 µM: 89.6%

CC(C)(C)c1ccc(NC(=O)N(CCN)Cc2c[nH]c(-c3ccccc3)n2)cc1 [CBK046297C]
viability at 28.5 h, 10 µM: 64.9%

CC(=O)Oc1ccc(N2C(=O)CCSC2=S)cc1 [CBK005283]
viability at 28.5 h, 10 µM: 89.4%

CN1CCN(C(=O)c2ccc(-c3ccco3)nc2N(C)C)CC1 [CBK106121]
viability at 28.5 h, 10 µM: 94.4%

CCC(C(=O)N1CCc2nc(C)[nH]c(=O)c2C1)c1ccccc1 (centres unmarked) [CBK284618]
viability at 28.5 h, 10 µM: 91.6%

CCOCCC(=O)NC1CCCc2nc(N3CCC(CO)CC3)ncc21 (centres unmarked) [CBK306624]
viability at 28.5 h, 10 µM: 92.8%

CS(=O)(=O)N1CC2(CCN(CC(=O)c3ccsc3)CC2)c2ccccc21 [CBK144595T]
viability at 28.5 h, 10 µM: 87%

Cn1ccnc1C1(O)C2CCCC1CN(CC1CCCCC1)C2 (centres unmarked) [CBK285220]
viability at 28.5 h, 10 µM: 91.5%

CC(C)CNc1nc(-c2cc(C(F)(F)F)cc(C(F)(F)F)c2)cnc1N [CBK063708]
viability at 28.5 h, 10 µM: 85.7%

CC(=O)N1CCc2c(c3cccc(Br)c3n2Cc2ccccc2)C1 [CBK024402]
viability at 28.5 h, 10 µM: 93.9%

O=C(Nc1ccc2n(c1=O)C[C@H]1C[C@@H]2CN(c2ncccn2)C1)c1ccccc1 [CBK289077]
viability at 28.5 h, 10 µM: 86.4%

CC(=O)N1CCN(Cc2c(C3CCCC3)[nH]c3ncccc23)CC1 [CBK285339]
viability at 28.5 h, 10 µM: 80%

CN(CCO)S(=O)(=O)c1cccc(C(=O)O)c1 [CBK266657]
viability at 28.5 h, 10 µM: 89.4%

CC1(C)CCCC2=C1CC(C(=O)O)C(C(=O)NCc1cccnc1)C2 (centres unmarked) [CBK286795]
viability at 28.5 h, 10 µM: 83.3%

CS(=O)(=O)c1ccc(-c2ccc(OCC3CCN(C(=O)c4cccc(C#N)c4)CC3)nc2)cc1 [CBK162283]
viability at 28.5 h, 10 µM: 93.3%

Cc1c(OCc2ccccc2)ccc2c1OC1(CCN(C(=O)c3ccsc3)CC1)CC2=O [CBK156445]
viability at 28.5 h, 10 µM: 109%

CC(=O)C(CC(=O)O)C1=C(O)CC(C)(C)CC1=O (centres unmarked) [CBK287127]
viability at 28.5 h, 10 µM: 91.5%

O=C(O)c1ccccc1NS(=O)(=O)c1cccc2cccnc12 [CBK042358]
viability at 28.5 h, 10 µM: 56.7%

Cc1ccccc1NC(=O)CCC(=O)N/N=C/c1ccncc1 [CBK262016]
viability at 28.5 h, 10 µM: 101%

COc1ncccc1C(=O)N1CCN(CCc2ccccc2)CC1 [CBK200226]
viability at 28.5 h, 10 µM: 88.4%

c1cnc(N2CCN(Cc3ccc4c(c3)OCO4)CC2)c(OCCN2CCOCC2)n1 [CBK082894T]
viability at 28.5 h, 10 µM: 87.8%

Cc1ccc(NC(=O)c2cnc(SCc3ccc(F)cc3)n(C)c2=O)cc1C [CBK287674]
viability at 28.5 h, 10 µM: 90.5%

Cc1nn(C)cc1S(=O)(=O)N1CCCC(c2cccc(Cc3ccccc3Cl)n2)C1 (centres unmarked) [CBK286127]
viability at 28.5 h, 10 µM: 106%

Cn1nccc1C1CCN(Cc2ccc(Oc3cnccn3)cc2)CC1 [CBK306400]
viability at 28.5 h, 10 µM: 104%

Cc1ccccc1C(=O)Nc1cccc(-c2nnc(SCC(=O)c3ccc(Cl)cc3)n2C)c1 [CBK264053]
viability at 28.5 h, 10 µM: 89.3%

CCN(CC(=O)Nc1ccc2c(c1)OCCO2)S(=O)(=O)c1ccsc1C(=O)O [CBK296717]
viability at 28.5 h, 10 µM: 95.5%

COc1cc([N+](=O)[O-])cc(CN2CCN(CCO)CC2)c1O [CBK261851]
viability at 28.5 h, 10 µM: 92.4%

CNC(=O)C1(Cc2ccccc2-c2cccc(F)c2)CCN(C(=O)Cc2ccccc2)CC1 [CBK285692]
viability at 28.5 h, 10 µM: 115%

Cn1cc(I)c(C(=O)NNC(=S)Nc2ccc(S(N)(=O)=O)cc2)n1 [CBK267066]
viability at 28.5 h, 10 µM: 106%

Cn1c([C@H]2CCN(C(=O)c3cnccn3)C2)nc2ccccc21 [CBK289416]
viability at 28.5 h, 10 µM: 110%

Cc1cc(NC(=O)CN2CCC(CSc3ccccc3)C2)no1 (centres unmarked) [CBK306136]
viability at 28.5 h, 10 µM: 92.4%

CC(C)(C)OC(=O)NCc1ccc(CNCc2ccccc2C(F)(F)F)cc1 [CBK056703]
viability at 28.5 h, 10 µM: 92.2%

COc1cccc(C2(NC(=O)c3c(C)noc3C)CCCC2)c1 [CBK283659]
viability at 28.5 h, 10 µM: 98.1%

Cc1ccc(-c2cnc(SCC(N)=O)n2-c2ccccc2)cc1 [CBK287757]
viability at 28.5 h, 10 µM: 113%

O=S(=O)(NCC(Sc1ccc(F)cc1)c1ccccc1)c1ccc(Cl)cc1 (centres unmarked) [CBK266306]
viability at 28.5 h, 10 µM: 96.8%

COC(=O)c1c(NC(=O)CSc2nc[nH]n2)sc2c1CCCC2 [CBK267222]
viability at 28.5 h, 10 µM: 81.6%

CC1=NN(c2ccccc2)C(=O)C1C(=O)c1ccccc1 (centres unmarked) [CBK083564]
viability at 28.5 h, 10 µM: 99.3%

O=C(C1CCCC1)N1CCCC1c1nnc(-c2ccsc2)o1 (centres unmarked) [CBK285506]
viability at 28.5 h, 10 µM: 102%

Cc1ncccc1COC(=O)N1CCC(C(F)(F)F)CC1 [CBK200154]
viability at 28.5 h, 10 µM: 102%

O=S(=O)(Nc1cccc2nonc12)c1ccccc1Br [CBK062577]
viability at 28.5 h, 10 µM: 102%

Cc1cn(S(=O)(=O)c2ccc(Br)cc2)cn1 [CBK026488]
viability at 28.5 h, 10 µM: 97.3%

CCNC(=O)N1CC2(CCN(CCCC#N)CC2)c2ccccc21 [CBK136970]
viability at 28.5 h, 10 µM: 111%

CS(=O)(=O)N1CCN(c2ccccc2NC(=O)c2cccnc2)CC1 [CBK267604]
viability at 28.5 h, 10 µM: 119%

COc1cccc(CNCc2ccccc2[N+](=O)[O-])c1OC [CBK262198]
viability at 28.5 h, 10 µM: 98%

O=C(Nc1nc(-c2ccccc2)ns1)c1ccncc1 [CBK113234]
viability at 28.5 h, 10 µM: 81.6%

COC(=O)[C@@H]1Cc2ncn(C)c2CN1S(=O)(=O)c1ccc(C#N)cc1 [CBK288993]
viability at 28.5 h, 10 µM: 83.9%

CCN(CC)C(=O)c1sccc1NS(=O)(=O)c1ccc(OC)c(OC)c1 [CBK004596]
viability at 28.5 h, 10 µM: 94.3%
